# Patent US4785090A, “Cephalosporin derivatives” (Meiji Seika Kaisha, Ltd., priority 1984, dated 1988)
# Where a name gives a salt, the structure may show the parent alone.
# Assays:
# Escherichia coli RGN 823 = test: Minimum Growth Inhibitory Concentration (MIC), Escherichia coli RGN 823; type: cell-based; conditions: RGN823; Table 1, bacterium 3: Escherichia coli RGN 823
# Excerpt: (§1) Minimum Growth Inhibitory Concentration (MIC) mcg/ml
# 3. Escherichia coli RGN 823
# Serratia marcescens N 01 = test: Minimum Growth Inhibitory Concentration (MIC), Serratia marcescens N 01; type: cell-based; conditions: N01; Table 1, bacterium 7: Serratia marcescens N 01
# Excerpt: as §1
# 7. Serratia marcescens N 01
# [1] = test system: Enterobacter cloacae G0005; test: Minimum Growth Inhibitory Concentration (MIC), Enterobacter cloacae G0005; type: cell-based; conditions: Table 1, bacterium 11: Enterobacter cloacae G0005
# Excerpt: as §1
# 11. Enterobacter cloacae G0005
# Proteus vulgaris GN 76 = test: Minimum Growth Inhibitory Concentration (MIC), Proteus vulgaris GN 76; type: cell-based; conditions: GN76; Table 1, bacterium 10: Proteus vulgaris GN 76; read-out: Minimum Growth Inhibitory Concentration (MIC)
# Excerpt: as §1
# 10. Proteus vulgaris GN 76
# as §1
# 8. Proteus vulgaris GN 76
# [2] = test system: Staphylococcus aureus 209PJC1; test: Minimum Growth Inhibitory Concentration (MIC), Staphylococcus aureus 209PJC1; type: cell-based; conditions: Table 1, bacterium 1: Staphylococcus aureus 209PJC1; read-out: Minimum Growth Inhibitory Concentration (MIC)
# Excerpt: as §1
# 1. Staphylococcus aureus 209PJC1
# as §1
# 2. Staphylococcus aureus 209 PJC1
# [3] = Toxicity test in mice (intravenous); type: in vivo; conditions: mouse, in vivo, iv
# Excerpt: Further, the compound of Example 28 was intravenously adminstered to 3 mice at a dose of 1 g/kg and also the compounds of Examples 34 and 51 were similarly administered at a dose of 3 g/kg respectively, and the number of survivor was examined after a week.
# [4] = test system: Pseudomonas aeruginosa MB 3833; test: Minimum Growth Inhibitory Concentration (MIC), Pseudomonas aeruginosa MB 3833; type: cell-based; conditions: MB3833; Table 1, bacterium 8: Pseudomonas aeruginosa MB 3833
# Excerpt: as §1
# 8. Pseudomonas aeruginosa MB 3833
# Bacillus subtilis = test: Minimum Growth Inhibitory Concentration (MIC), Bacillus subtilis; type: cell-based; conditions: Table 1, bacterium 2: Bacillus subtilis
# Excerpt: as §1
# [5] = test system: Cephalosporinase-producing Escherichia coli GN206; test: Treatment of experimental infection in mice (Escherichia coli GN206); type: in vivo; conditions: intraperitoneal infection 1.25×10^6 CFU/mouse, subcutaneous one hour after infection, survival at one week
# [6] = test system: Streptococcus faecalis ATCC 8043; test: Minimum Growth Inhibitory Concentration (MIC), Streptococcus faecalis ATCC 8043; type: cell-based; conditions: Enterococcus faecalis, ATCC8043; Table 1, bacterium 9: Streptococcus faecalis ATCC 8043
# Excerpt: as §1
# 9. Streptococcus faecalis ATCC 8043
# [7] = Serum concentration in mice after subcutaneous administration; type: in vivo; conditions: mouse, sc, subcutaneous 25 mg/kg
# Description: The experiment was conducted by using 3 mice (average body weight 20 g) in each group, subcutaneously administering 25 mg/kg of the sample, taking blood samples at predetermined intervals, separating the serum and measuring the sample concentration by an antibacterial activity test using Escherichia coli as a testing bactera.
# [8] = test system: Klebsiella pneumoniae GN 69; test: Minimum Growth Inhibitory Concentration (MIC), Klebsiella pneumoniae GN 69; type: cell-based; conditions: GN69; Table 1, bacterium 4: Klebsiella pneumoniae GN 69
# Excerpt: as §1
# 4. Klebsiella pneumoniae GN 69
# [9] = test system: Enterobacter cloacae G0006; test: Minimum Growth Inhibitory Concentration (MIC), Enterobacter cloacae G0006; type: cell-based; conditions: Table 1, bacterium 6: Enterobacter cloacae G0006
# Excerpt: as §1
# 6. Enterobacter cloacae G0006
# Proteus vulgaris OX19 = test: Minimum Growth Inhibitory Concentration (MIC), Proteus vulgaris OX19; type: cell-based; conditions: Table 1, bacterium 5: Proteus vulgaris OX19
# Excerpt: as §1
# 5. Proteus vulgaris OX19
SMILES,MIC (Escherichia coli RGN 823) [µg/mL],MIC (Serratia marcescens N 01) [µg/mL],MIC [1] [µg/mL],MIC (Proteus vulgaris GN 76) [µg/mL],MIC [2] [µg/mL],LD50 at 168 h [3] [mg/kg],MIC [4] [µg/mL],MIC (Bacillus subtilis) [µg/mL],ED50 [5] [mg/mouse],MIC [6] [µg/mL],concentration at 0.5 h ([7]; 1/2 hr) [ng/mL],concentration at 0.25 h ([7]; 1/4 hr) [ng/mL],concentration at 5 min ([7]; 1/12 hr) [ng/mL],concentration at 1 h ([7]; 1 hr) [ng/mL],MIC [8] [µg/mL],MIC [9] [µg/mL],MIC (Proteus vulgaris OX19) [µg/mL]
"C[n+]1ccc(SCC2=C(C(=O)[O-])N3C(=O)[C@@H](NC(=O)/C(=N\OCC(=O)O)c4csc(N)n4)[C@H]3SC2)c2c1CCC2 [Example 51, (6R,7R)-7-[(Z)-2-(2-Aminothiazol-4-yl)-2-(carboxymethoxyimino)acetamido]-3-[(2,3-cyclopenteno-1-methylpyridinium-4-yl)thiomethyl]-ceph-3-em-4-carboxylic acid sodium salt]",0.1,≤ 0.025,0.05,≤ 0.025,1.56,≥ 3000,6.25,0.05,0.37,1.56,24000,34000,27000,5400,≤ 0.025,–,–
"CO/N=C(\C(=O)N[C@@H]1C(=O)N2C(C(=O)[O-])=C(CSc3cc[n+](C)c4c3CCC4)CS[C@H]12)c1csc(N)n1 [Example 2, (6R,7R)-7-[(Z)-2-(2-Aminothiazol-4-yl)-2-methoxyiminoacetamido]-3-[(2,3-cyclopenteno-1-methylpyridinium-4-yl)thiomethyl]-ceph-3-em-4-carboxylate]",≤ 0.025,0.05,–,–,0.05,–,6.25,1.56,–,–,–,–,–,–,≤ 0.025,0.78,0.1
"CO/N=C(\C(=O)N[C@@H]1C(=O)N2C(C(=O)[O-])=C(CSc3cc[n+](CCS(=O)(=O)O)c4c3CCC4)CS[C@H]12)c1csc(N)n1 [Example 39, (6R,7R)-7-[(Z)-2-(2-Aminothiazol-4-yl)-2-methoxyiminoacetamido]-3-[[2,3-cyclopenteno-1-(2-sulfoethyl)pyridinium-4-yl]thiomethyl]-ceph-3-em-4-carboxylic acid sodium salt]",≤ 0.025,≤ 0.025,0.1,0.2,0.78,–,12.5,1.56,–,6.25,–,–,–,–,≤ 0.025,–,–
"CO/N=C(\C(=O)N[C@@H]1C(=O)N2C(C(=O)[O-])=C(CSc3cc(C)[n+](C)c4c3CCC4)CS[C@H]12)c1csc(N)n1 [Example 4, (6R,7R)-7-[(Z)-2-(2-Aminothiazol-4-yl)-2-methoxyiminoacetamido]-3-[(6-methyl-2,3-cyclopenteno-1-methylpyridinium-4-yl)thiomethyl]-ceph-3-em-4-carboxylate]",0.1,0.1,–,–,0.1,–,6.25,0.2,–,–,–,–,–,–,0.1,0.78,0.2
"C[n+]1c(SCC2=C(C(=O)[O-])N3C(=O)[C@@H](NC(=O)/C(=N\OC(C)(C)C(=O)O)c4csc(N)n4)[C@H]3SC2)ccc2c1CCCC2 [Example 18, (6R,7R)-7-[(Z)-2-(2-Aminothiazol-4-yl)-2-(1-methyl-1-carboxyethoxyimino)acetamido]-3-[(5,6-cyclohexeno-1-methylpyridinium-2-yl)thiomethyl]-ceph-3-em-4-carboxylate]",0.2,0.05,–,–,1.56,–,6.25,12.5,–,–,–,–,–,–,0.39,6.25,0.1
